Tests used:
[1] = tested on: JAK1; assay: JAK kinase autophosphorylation assay on immunoprecipitates (JAK1); type: biochemical; conditions: immunoprecipitates from MDA-MB-468 or v-Src/NIH 3T3 cells; AG490 100 μM, PD180970 2 μM
Description: JAK Kinase Assays. A549, MDA-MB-468, and v-Src transformed NIH 3T3 cells were harvested, washed three times in PBS-V (10 mM sodium phosphate, pH 7.4, 137 mM NaCl, 1 mM sodium orthovanadate) then lysed for 30 min on ice in JAK kinase lysis buffer (25 mM Hepes, pH 7.4, 0.1% Triton-X-100, 0.5 mM DTT, 1 mM sodium orthovanadate, 1 mM PMSF, 10 μg/ml aprotinin, 10 μg/ml leupeptin). Samples were spun at high speed to clear, and 800-1000 μg of protein was immunoprecipitated per treatment condition with 50 ng of either JAK1 or JAK2 antibody (Santa Cruz Biotechnology) rocking overnight at 4° C. 25 μl of protein A/G PLUS agarose then was added and rocking continued for 1 hr at 4° C. Samples were spun to collect agarose pellet, and pellet washed twice in wash buffer (50 mM Hepes, pH 7.4, 0.1% Triton-X-100, 0.5 mM DTT, 150 mM NaCl) and once in phosphorylation buffer (50 mM Hepes, pH 7.4, 0.1% Triton-X-100, 0.5 mM DTI, 6.25 mM manganese chloride, 100 mM NaCl). Kinase reactions were performed at 30° C. for 15 min in a final volume of 100 μl of phosphorylation buffer. Samples were pretreated with DMSO control, JSI-124, and control compounds (AG490, 100 μM, and […], 2 μM) before addition of 20 μCi/sample y-[^32P]ATP. Reaction was halted using stop buffer (wash buffer plus 10 mM EDTA), samples spun to collect pellet, then pellet washed once with stop buffer and twice with wash buffer. Samples were then placed in 2×SDS-PAGE sample buffer, boiled at 100° C., and run on 8% SDS-PAGE gels to separate proteins. Autophosphorylation results were visualized by autoradiography.

[2] = tested on: MDA-MB-468 tumors; assay: Antitumor activity, MDA-MB-468 xenograft in nude mice; type: in vivo; conditions: 1 mg/kg/day i.p.
Text: Antitumor Activity in the Nude Mouse Tumor Xenograft Model. Nude mice and C57 BL-6 black mice (National Cancer Institute, Bethesda, Md.) were maintained in accordance with the Institutional Animal Care and Use Committee (IACUC) procedures and guidelines. v-Src- and oncogenic H-Ras-transformed NIH 3T3, A549, MDA-MB-468 and Calu-1 cells were harvested, resuspended in PBS and injected s.c. into the right and left flank (10×10^6 cells per flank) of 8 week old female nude mice as reported previously (Sun, J. et al. Cancer Res., 1999, 59:4919-4926). Similarly, murine B16-F10 Melanoma cells were injected s.c. into the right and left flank (10^6 cells per flank) of C57 black mice. When tumors reached about 150 mm^3, animals were randomized (five animals per group; two tumors per animal) and dosed i.p. with 0.2 ml once daily. Control animals received DMSO (20%) vehicle whereas treated animals were injected with JSI-124 (1 mg/kg/day) in 20% DMSO in water. The tumor volumes were determined by measuring the length (l) and the width (w) and calculating the volume (V=1w^2/2) as described previously (Sun, J. et al. Cancer Res., 1999, 59:4919-4926). Statistical significance between control and treated animals were evaluated by using Student's t-test. […] Percent surviving mice was determined by monitoring the death of mice until all mice died. […]

[3] = Tolerability observations in treated mice; type: in vivo
Text: Antitumor Activity in the Nude Mouse Tumor Xenograft Model. Nude mice and C57 BL-6 black mice (National Cancer Institute, Bethesda, Md.) were maintained in accordance with the Institutional Animal Care and Use Committee (IACUC) procedures and guidelines. v-Src- and oncogenic H-Ras-transformed NIH 3T3, A549, MDA-MB-468 and Calu-1 cells were harvested, resuspended in PBS and injected s.c. into the right and left flank (10×10^6 cells per flank) of 8 week old female nude mice as reported previously (Sun, J. et al. Cancer Res., 1999, 59:4919-4926). Similarly, murine B16-F10 Melanoma cells were injected s.c. into the right and left flank (10^6 cells per flank) of C57 black mice. When tumors reached about 150 mm^3, animals were randomized (five animals per group; two tumors per animal) and dosed i.p. with 0.2 ml once daily. […] The tumor volumes were determined by measuring the length (l) and the width (w) and calculating the volume (V=1w^2/2) as described previously (Sun, J. et al. Cancer Res., 1999, 59:4919-4926). Statistical significance between control and treated animals were evaluated by using Student's t-test. For the mouse survival experiments, C57 BL-6 black mice were implanted s.c. with B16-F10 cells (10^5 to 10^6 cells per flank). On day 5 after implantation the mice were randomized (6 animals per group) and treated with either vehicle or JSI-124 (1 mg/Kg/day) for 25 days. Percent surviving mice was determined by monitoring the death of mice until all mice died. Two experiments of 12 animals each (6 control and 6 treated with JSI-124) were carried out. For statistical analysis: for each of the two experiments, mice receiving JSI-124 were compared to those receiving vehicle control with respect to survival using the permutation log rank test as implemented in the statistical software package, ProcStatXact (p-values are two sided and exact).

## CC(C)(O)/C=C/C(=O)[C@](C)(O)[C@H]1[C@H](O)C[C@@]2(C)[C@@H]3CC=C4[C@@H](C=C(O)C(=O)C4(C)C)[C@]3(C)C(=O)C[C@]12C [JSI-124, cucurbitacin I]
[1]
  JAK1 kinase activity (autophosphorylation) in vitro: not affected
[2]
  inhibition of MDA-MB-468 tumor growth: 86%
[3]; 1 mg/kg/day and 0.5 mg/kg/day i.p.
  effects on body weight, activity or food intake of mice: no effects on body weight, activity or food intake
[3]; 1 mg/kg/day i.p.
  edema at the local site of drug injection (peritoneal cavity): caused edema

Source: patent US8691799B2, “Materials and methods for treatment of cancer and identification of anti-cancer compounds” (priority 2001, dated 2014)
